Assay: Solubility of TA in a solvent containing 50% benzoic acid and 50% water at various temperatures
Assay type: physicochemical
Conditions: solvent 50% benzoic acid and 50% water
Description: The solubility of TA in a solvent containing 50% benzoic acid and 50% water was determined at various temperatures and is shown below in Table 1.

solubility of TA given in Example 1 (at 455 °F): 10.9% | TA Solubility (Temp 397 °F): 5.04 g TA/100 g Solution | TA Solubility (Temp 436 °F): 8.58 g TA/100 g Solution | TA Solubility (Temp 446 °F): 9.59 g TA/100 g Solution | TA Solubility (Temp 451 °F): 9.77 g TA/100 g Solution | TA Solubility (Temp 455 °F): 10.91 g TA/100 g Solution | TA Solubility (Temp 477 °F): 13.49 g TA/100 g Solution | TA Solubility (Temp 505 °F): 18.71 g TA/100 g Solution
SMILES: O=C(O)c1ccc(C(=O)O)cc1 [TA, terephthalic acid]
